Columns and labels:
3T3-L1 adipocytes = assay: Glucose uptake in transformed 3T3-L1 adipocytes (colourometric glucose oxidase method); format: cell-based; details: for Glucose conc.: glucose remaining in the media after 3 hour exposure to the cells; for Glucose conc. / Glucose Uptake: media containing 8 mM glucose; for Glucose Uptake: glucose uptake from the media after 3 hour exposure; for % uptake: relative to DMSO vehicle = 100.00, 3 hour glucose uptake; for glucose uptake over a 3 hour culture period: 3T3-L1 adipose cells
Method: 3T3-L1 cells were transformed in culture using modified DMEM differentiation media supplemented with insulin, dexametasone and isobutylmethylxanthine and cultured for 3 days. The transformed 3T3-L1 adipocytes were then cultured for a further 5 days in modified DMEM supplemented with 10% FCS before being exposed to insulin, metformin and compounds of the present invention (see Table 1). Glucose uptake over a three (3) hour period was determined after the 5 days of treatment using a colourometric glucose oxidase method (Biovision Inc, USA).
The glucose concentration column represents the glucose concentration remaining in the media following three (3) hour exposure to the cells. The glucose uptake column represents glucose uptake from the media after a 3 hour exposure. SD represents the standard deviation. The percentage increases calculated from the relevant solvent vehicle and the P=values are reflected in the last two columns respectively.

Chang cells = assay: 2-deoxy-[3H]-D-glucose uptake assay; format: cell-based; details: Chang cell cultures, 3 hrs exposure
Method: The glucose uptake of RX-1 and selected analogues after administration of test compounds to Chang cell cultures were determined in an operating protocol for the 2-deoxy-[^3H]-D-glucose. The protocol, which is described in more detail below, has been designed to test for the RX-1 (and RX-1 analogues) mediated glucose uptake. In Table the EC50 values for the uptake for RX-1 and representative analogues is shown.
Stock solutions of the RX-1 analogues supplied in cryo vials (DrugMode) was prepared by diluting the compound with […] sterile tissue culture grade water. This will yield a 5 mM stock solution. If the analogue […] an additional 50 μl methanol will be added (this will be recorded clearly on the log sheet). This will yield a 4 mM stock solution. Stock solutions will be kept on ice at all times and analogues will be stored in 20 μl aliquots at −80 C for subsequent use. Tubes that have been thawed will be clearly marked on the label.
RX-1 (10 μM) Positive Control Solution • To prepare a 10 μM RX-1 solution as positive control. Add 30 μl to 2970 μl modified DMEM media supplemented with 8 mM glucose.
RX-1 Analogue (31.6 μM) Test Solutions • To prepare a 31.6 μM RX-1 analogue test solution. Add 19 μl of the 5 mM to 2981 μl modified DMEM media supplemented with 8 mM glucose. To prepare a 31.6 μM RX-1 analogue test solution from a 4 mM stock solution, add 24 μl to 2976 μl modified DMEM media supplemented with 8 mM glucose.
Cell Seeding in 24-Well Plates • Chang cells are cultured according to procedures described in MRC cell culture SOPs: TC-B2a Thawing of cells and TC-B1a Cell line maintenance—general principles. Make sure cells are in the log phase (i.e. <70% confluence) and less than 20 passages. • Harvest cells using 0.25% (w/v) Trypsin/0.53 mM EDTA solution. • Count cells and resuspend to 30 000 cells/ml (Chang cell seeding density for 24-well plate=30 000 cells/ml) in EMEM (with pyruvate and NEAA, but without L-glutamate (Lonza, USA) containing 10% FBS (Gibco, UK) and pipette 1 ml/well cell suspension to a 24-well plate corresponding to 30 000 cells/well.
• after 3 days of cell growth, aspirate medium • wash cells once with pre-warmed DPBS at 37° C. • add 500 μl of pre-warmed 37° C. DMEM/0.1% BSA (without phenol red, glucose and pyruvate) to serum starve cells to remove residual glucose and FBS • incubate at 37° C. in humidified air and 5% CO2 for 30 min • aspirate DMEM/0.1% BSA (without phenol red, glucose and pyruvate) • Prepare test dilutions as specified in the plate layout (see below) • add 500 μl pre-warmed 37° C. of test dilution per well according to plate layout • incubate at 37° C. in humidified air and 5% CO2 for 3 hrs • remove test medium and wash cells once with DPBS (37° C.) • add 250 μl of test medium containing 0.5 μCi/ml ^3H-2-DOG to each well use (0.5 μl ^3H to 1 ml medium) • Incubate cells at 37° C. in humidified air and 5% CO2 for 15 min • Aspirate medium • To stop the reaction, wash cells twice with ice-cold DPBS • Aspirate DPBS and ensure that wells are as dry as possible • Lyse cells by adding 1 ml of 0.3N NaOH/1% SDS and incubate at 37° C. for at least 45 min • Mix cell lysate thoroughly before subsequent use in LSC and Bradford protein determination

Compound | Glucose conc. (3T3-L1 adipocytes) | Glucose Uptake (3T3-L1 adipocytes) | % uptake (3T3-L1 adipocytes) | EC50 (Chang cells) | glucose uptake over a 3 hour culture period (3T3-L1 adipocytes)
Insulin | 2.86 nM/ul | 3.13 nM/ul | 134.03% | – | –
Cc1cccc(/C=C(\O[C@H]2O[C@@H](CO)[C@H](O)[C@@H](O)[C@@H]2O)C(=O)O)c1 [RX-19, (Z)-3-(m-Tolyl)-2-(((2R,3S,4R,5R,6S)-3,4,5-trihydroxy-6-(hydroxymethyl)tetrahydro-2H-pyran-2-yl)oxy)acrylic acid] | – | – | – | 181 µM | –
O=C(O)/C(=C/c1ccccc1Cl)O[C@H]1O[C@@H](CO)[C@@H](O)[C@@H](O)[C@@H]1O [RX-21, (Z)-3-(2-Chlorophenyl)-2-(((2R,3S,4R,5S,6S)-3,4,5-tri hydroxy-6-(hydroxymethyl)tetrahydro-2H-pyran-2-yl)oxy)acrylic acid] | – | – | – | 286 µM | –
O=C(O)/C(=C/c1c(F)cccc1Cl)O[C@H]1O[C@@H](CO)[C@@H](O)[C@@H](O)[C@@H]1O [RX-16, (Z)-3-(2-Chloro-6-fluorophenyl)-2-(((2R,3S,4R,5S,6S)-3,4,5-trihydroxy-6-(hydroxymethyl)tetrahydro-2H-pyran-2-yl)oxy)acrylic acid] | – | – | – | 6.99 µM | –
O=C(O)/C(=C/c1ccccc1F)O[C@H]1O[C@@H](CO)[C@H](O)[C@@H](O)[C@@H]1O [RX-4, (Z)-3-(2-Fluorophenyl)-2-(((2R,3S,4R,5R,6S)-3,4,5-trihydroxy-6-(hydroxymethyl)tetrahydro-2H-pyran-2-yl)oxy)acrylic acid] | – | – | – | 80.8 µM | –
O=C(O)/C(=C/c1cccc(F)c1)O[C@H]1O[C@@H](CO)[C@@H](O)[C@@H](O)[C@@H]1O [RX-5, (Z)-3-(3-Fluorophenyl)-2-(((2R,3S,4R,5S,6S)-3,4,5-trihydroxy-6-(hydroxymethyl)tetrahydro-2H-pyran-2-yl)oxy)acrylic acid] | – | – | – | 114 µM | –
O=C(O)/C(=C/c1ccccc1[N+](=O)[O-])O[C@H]1O[C@@H](CO)[C@H](O)[C@@H](O)[C@@H]1O [RX-2, (Z)-3-(2-Nitrophenyl)-2-(((2R,3S,4R,5R,6S)-3,4,5-trihydroxy-6-(hydroxymethyl)tetrahydro-2H-pyran-2-yl)oxy)acrylic acid] | – | – | – | 9.35 µM | –
COC(=O)/C(=C/c1ccccc1)O[C@@H]1O[C@H](CO)[C@@H](O)[C@H](O)[C@H]1O [RX-1 acrylate, (Z)-Methyl 3-phenyl-2-((2S,3R,4S,5S,6R)-3,4,5-trihydroxy-6-(hydroxymethyl)tetra hydro-2H-pyran-2-yloxy)acrylate] | 2.82 nM/ul | 3.16 nM/ul | 135.53% | – | significantly increased
Cc1cccc(/C=C(\O[C@H]2O[C@@H](CO)[C@@H](O)[C@@H](O)[C@@H]2O)C(=O)O)c1 [RX-18, (Z)-3-(m-Tolyl)-2-(((2R,3S,4R,5S,6S)-3,4,5-trihydroxy-6-(hydroxymethyl)tetrahydro-2H-pyran-2-yl)oxy)acrylic acid] | – | – | – | 9.5 µM | –
CN(C)C(=N)N=C(N)N [Metformin, reference compound] | 3.27 nM/ul | 2.73 nM/ul | 117.14% | – | –
O=C(O)/C(=C/c1cccc(C(F)(F)F)c1)O[C@H]1O[C@@H](CO)[C@@H](O)[C@@H](O)[C@@H]1O [RX-10, (Z)-3-(3-(Trifluoromethyl)phenyl)-2-(((2R,3S,4R,5S,6S)-3,4,5-trihydroxy-6-(hydroxymethyl)tetrahydro-2H-pyran-2-yl)oxy)acrylic acid] | – | – | – | 105 µM | –
O=C(O)/C(=C/c1cccc(C(F)(F)F)c1)O[C@H]1O[C@@H](CO)[C@H](O)[C@@H](O)[C@@H]1O [RX-20, (Z)-3-(3-(Trifluoromethyl)phenyl)-2-(((2R,3S,4R,5R,6S)-3,4,5-trihydroxy-6-(hydroxymethyl)tetrahydro-2H-pyran-2-yl)oxy)acrylic acid] | – | – | – | 5.7 µM | –
COC(=O)/C(=C/c1ccccc1)O[C@@H]1O[C@H](COC(C)=O)[C@@H](OC(C)=O)[C@H](OC(C)=O)[C@H]1OC(C)=O [RX-1 triacetate, (2R,3R,4S,5R,6S)-2-(Acetoxymethyl)-6-((Z)-3-methoxy-3-oxo-1-phenylprop-1-en-2-yloxy)tetrahydro-2H-pyran-3,4,5-triyl triacetate] | 2.92 nM/ul | 3.05 nM/ul | 130.78% | – | significantly increased

From patent US10174065B2, “Antidiabetic enolic glucoside of phenylpyruvic acid” (ZADEC APS, priority 2010, dated 2019)
